Reference: patent US20100137429A1, “COMPOSITION FOR T[…] TRANSMUCOSAL ADMINISTRATION” (FUJIMOTO CO., LTD., priority 2007, published 2010)
Where a name gives a salt, the structure may show the parent alone. Read-outs that look alike come from different tables or passages of the source.

How the values were obtained:
[1] = Test Example 1: plasma level after single intravenous, subcutaneous and oral administration; assay type: in vivo, male SD rats; conditions: for bioavailability / Cmax / Tmax / AUC: rat, plasma, fasted male SD rats; for bioavailability: read-out: F (bioavailability); for AUC: trapezoidal method
Description: 0.5 mg/kg of the (−) isomer of the present compound (hydrochloride) (1 mL/kg of 0.5 mg/mL aqueous solution in physiological saline) was administered to the tail vein of each of male SD rats fasted since the previous day, and 5 minutes, 10 minutes, 20 minutes, 30 minutes, 45 minutes, 1 hour, 1.5 hours, 2 hours, 3 hours, 4 hours, and 6 hours after administration, whole blood was collected from the abdominal aorta.
(§1) 1 mg/kg of the (−) isomer of the present compound (hydrochloride) (5 mL/kg of 0.2 mg/mL aqueous solution) was administered subcutaneously to the back of the neck of each of male SD rats fasted since the previous day, and 5 minutes, 10 minutes, 20 minutes, 30 minutes, 1 hour, 1.5 hours, 2 hours, 3 hours, 4 hours, 6 hours, 8 hours and 10 hours after administration, whole blood was collected from the abdominal aorta.
as §1, with “10 mg/kg” for “1 mg/kg”, “(hydrochloride) (10” for “(hydrochloride) (5”, “of 1” for “of 0.2”, “administered forcedly orally” for “administered subcutaneously”, “to” for “to the back of the neck of each of”
The blood collected from each rat was transferred to a blood collecting tube containing 2Na EDTA, then sufficiently mixed by turning the tube upside down, and then centrifuged at 3,000 rpm for 10 minutes, and the obtained plasma was recovered. The plasma was freeze-preserved at −20° C. until analysis. The plasma level of the compound was measured by high performance liquid chromatography (HPLC). As a pharmacokinetic parameter, AUCO-t (area under the blood level-time curve, hereinafter referred to as “AUC”) was calculated by a trapezoidal method, and Cmax (maximum blood concentration) and tmax (time-to-maximum blood concentration) were determined from actual measurement values.

[2] = Test Example 4: plasma and brain homogenate concentrations after oral and intraoral administration; assay type: in vivo, male SD rats; conditions: rats
Description: The (−) isomer of the present compound (hydrochloride) was administered forcedly orally in a dose of 10 mg/kg (10 mL/kg of 1 mg/mL aqueous solution) to fasted male SD rats, and 5, 15, 30, 60 and 120 minutes after administration, whole blood was collected from the abdominal aorta.
The (−) isomer of the present compound (hydrochloride) was dropped in a dose of 1 mg/kg (0.1 mL/kg of 10 mg/mL aqueous solution) into the oral cavity of each fasted male SD rat anesthetized under ether. In the case of the powder preparation, the preparation which had been weighed so as to be in a dose of 1 mg/kg was placed beneath the tongue of each rat under anesthesia. In either case, the rats were left for 1 minute under anesthesia and then returned to cages, and 5, 15, 30, 60 and 120 minutes after administration, whole blood was collected from the abdominal aorta.
The blood collected from each rat was treated in the same manner as in Test Example 1. After blood collection, blood in the body of each rat was perfused with refrigerated physiological saline, and the cerebrum was excised therefrom. The cerebrum was cut thin with a knife and homogenized in 5 mL physiological saline added per gram of the tissues. 0.5 mL acetonitrile was added to 0.5 mL of the brain homogenate which was then stirred by means of a test tube mixer and centrifuged at 10,000 rpm for 5 minutes, to give a supernatant.
The concentrations of the compound in the plasma and in the brain homogenate were measured by LC/MS/MS. Simultaneously, the metabolites were quantitatively determined by using metabolite standards.

[3] = intraoral 1 mg/kg vs oral 10 mg/kg

For `CCCNC(CCC)Cc1cc2ccccc2o1` (single isomer, unassigned; (-)) [(−) isomer of the present compound (hydrochloride), (−)-1-(benzofuran-2-yl)-2-propylaminopentane], the “blood level in the oral administration” value ([1]; oral 10 mg/kg, rats) was “low as compared with the given dose”, the bioavailability ([1]; sc, subcutaneous, 1 mg/kg) was 144% and the bioavailability ([1]; oral, 10 mg/kg) was 4.1%. The Cmax ([1]; sc, subcutaneous, 1 mg/kg) was 135 ng/mL, the Tmax ([1]; sc, subcutaneous, 1 mg/kg) was 10.2 min and the AUC ([1]; sc, subcutaneous, 1 mg/kg) was 231 ng·h/mL. For the same molecule, the Cmax ([1]; intravenous, 0.5 mg/kg) was 94.1 ng/mL, the Tmax ([1]; intravenous, 0.5 mg/kg) was 4.8 min and the AUC ([1]; intravenous, 0.5 mg/kg) was 80 ng·h/mL. It also gave a Cmax ([1]; oral, 10 mg/kg) of 86.9 ng/mL, a Tmax ([1]; oral, 10 mg/kg) of 10.2 min and an AUC ([1]; oral, 10 mg/kg) of 65.4 ng·h/mL. The “blood concentration in intraoral administration compared with oral administration” value ([2]; intraoral 1 mg/kg (aqueous solution, powder preparation) vs oral 10 mg/kg) was “equal to or higher than that in the oral administration”, the “metabolites in intraoral administration compared with oral administration” value [2, 3] was “lower metabolites” and the “transferability of the compound to the brain (concentration in the brain homogenate)” value [2, 3] was “significantly higher than in the oral administration”.
